Marks after values point to notes of the source that are not given here.
Assay: Biodistribution studies in rats
Type: in vivo, Wistar rats
Settings: male rats
Experimental: [^123I]-1 (SA ≥ 37 MBq/nmol) was received after radiolabelling in an isotonic acetate (9% EtOH) buffer (pH 4.8). The solution was passed through a membrane filter (0.2 μm) and was diluted to the proper concentrations. Male Wistar rats (approximately 250 g body weight, obtained from Harlan/Charles River, Zeist, Netherlands) received an intravenous injection in the tail vein of approximately 3.7 MBq/0.4 mL buffer of [^123I]-1 under O2/CO2 anaesthesia. Distribution to the tissue was measured 15 min, 30 min, and 1, 2, 3, 4, and 24 h after the injection to determine the time course of uptake in several organs, including the brain. Four rats were killed at each time point via bleeding by heart puncture (to minimize contribution of blood activity) under O2/CO2 anaesthesia followed by cervical dislocation. Brain regions (cerebellum, frontal and prefrontal cortex, olfactory bulbs, pituitary, medulla with pons, midbrain, striatum, hypothalamus, hippocampus, and thalamus) and various peripheral tissues (heart, lung, liver, spleen, kidney, muscle, fat, and thymus) were quickly excised and weighted. The activity of [^123I] was assayed in a gamma counter, and data was corrected for decay and the amount of radioactivity was presented as percentage of the injected dose, multiplied by the body weight in kilograms, per gram tissue or blood. Selective uptake in the striatum was determined by calculating the ratio of radioactivity in the striatum in relation to that in the cerebellum, since the density of dopamine D2/3 receptor is negligible in this brain area in rats.

## Oc1ccc2c(c1)O[C@@H](CNCc1ccc([123I])cc1)CC2 [[^123I]-1]
3 h after i.v. injection
  123I radioactivity, Fat: 0.337 ± 0.065 %ID × kg/g
  123I radioactivity, Frontal cortex: 0.232 ± 0.095 %ID × kg/g
  123I radioactivity, Hippocampus: 0.230 ± 0.085 %ID × kg/g
  123I radioactivity, Hypothalamus: 0.233 ± 0.070 %ID × kg/g
  123I radioactivity, Kidney: 1.336 ± 0.175 %ID × kg/g
  123I radioactivity, Midbrain: 0.214 ± 0.062 %ID × kg/g
  123I radioactivity, Olfactory b.: 0.234 ± 0.087 %ID × kg/g
  123I radioactivity, Pituitary: 0.548 ± 0.149 %ID × kg/g
  123I radioactivity, Pons/medulla: 0.229 ± 0.066 %ID × kg/g
  123I radioactivity, Spleen: 0.284 ± 0.092 %ID × kg/g
  123I radioactivity, Striatum: 0.232 ± 0.065 %ID × kg/g
  123I radioactivity, Thalamus: 0.279 ± 0.091 %ID × kg/g
4 h after i.v. injection
  123I radioactivity, Fat: 0.174 ± 0.056 %ID × kg/g
  123I radioactivity, Frontal cortex: 0.109 ± 0.057 %ID × kg/g
  123I radioactivity, Hippocampus: 0.093 ± 0.059 %ID × kg/g
  123I radioactivity, Hypothalamus: 0.114 ± 0.051 %ID × kg/g
  123I radioactivity, Kidney: 1.005 ± 0.397 %ID × kg/g
  123I radioactivity, Midbrain: 0.098 ± 0.059 %ID × kg/g
  123I radioactivity, Olfactory b.: 0.112 ± 0.043 %ID × kg/g
  123I radioactivity, Pituitary: 0.307 ± 0.056 %ID × kg/g
  123I radioactivity, Pons/medulla: 0.106 ± 0.057 %ID × kg/g
  123I radioactivity, Spleen: 0.166 ± 0.087 %ID × kg/g
  123I radioactivity, Striatum: 0.101 ± 0.051 %ID × kg/g
  123I radioactivity, Thalamus: 0.114 ± 0.047 %ID × kg/g
24 h after i.v. injection
  123I radioactivity, Fat: 0.016 ± 0.005 %ID × kg/g
  123I radioactivity, Frontal cortex: 0.024 ± 0.002 %ID × kg/g
  123I radioactivity, Hippocampus: 0.014 ± 0.001 %ID × kg/g
  123I radioactivity, Hypothalamus: 0.027 ± 0.005 %ID × kg/g
  123I radioactivity, Kidney: 0.150 ± 0.026 %ID × kg/g
  123I radioactivity, Midbrain: 0.020 ± 0.003 %ID × kg/g
  123I radioactivity, Olfactory b.: 0.020 ± 0.001 %ID × kg/g
  123I radioactivity, Pituitary: 0.082 ± 0.006 %ID × kg/g
  123I radioactivity, Pons/medulla: 0.017 ± 0.001 %ID × kg/g
  123I radioactivity, Spleen: 0.022 ± 0.003 %ID × kg/g
  123I radioactivity, Striatum: 0.027 ± 0.010 %ID × kg/g
  123I radioactivity, Thalamus: 0.033 ± 0.006 %ID × kg/g
15 min after i.v. injection
  123I radioactivity, Frontal cortex: 2.567 ± 1.933 %ID × kg/g
  123I radioactivity, Hippocampus: 0.826 ± 0.475 %ID × kg/g
  123I radioactivity, Hypothalamus: 1.335 ± 0.766 %ID × kg/g
  123I radioactivity, Kidney: 1.618 ± 0.774 %ID × kg/g
  123I radioactivity, Midbrain: 3.566 ± 4.660 %ID × kg/g
  123I radioactivity, Muscle: 0.412 ± 0.466 %ID × kg/g
  123I radioactivity, Olfactory b.: 0.445 ± 0.439 %ID × kg/g
  123I radioactivity, Pons/medulla: 1.188 ± 0.587 %ID × kg/g
  123I radioactivity, Spleen: 2.428 ± 1.971 %ID × kg/g
  123I radioactivity, Striatum: 1.231 ± 1.299 %ID × kg/g
  123I radioactivity, Thalamus: 1.556 ± 1.015 %ID × kg/g
30 min after i.v. injection
  123I radioactivity, Frontal cortex: 2.329 ± 0.904 %ID × kg/g
  123I radioactivity, Hippocampus: 2.155 ± 0.675 %ID × kg/g
  123I radioactivity, Hypothalamus: 1.699 ± 0.526 %ID × kg/g
  123I radioactivity, Kidney: 1.735 ± 0.353 %ID × kg/g
  123I radioactivity, Midbrain: 1.715 ± 0.577 %ID × kg/g
  123I radioactivity, Muscle: 0.363 ± 0.049 %ID × kg/g
  123I radioactivity, Olfactory b.: 1.325 ± 0.402 %ID × kg/g
  123I radioactivity, Pituitary: 3.367 ± 1.033 %ID × kg/g
  123I radioactivity, Pons/medulla: 1.486 ± 0.274 %ID × kg/g
  123I radioactivity, Spleen: 1.270 ± 0.282 %ID × kg/g
  123I radioactivity, Striatum: 1.947 ± 0.666 %ID × kg/g
  123I radioactivity, Thalamus: 1.978 ± 0.618 %ID × kg/g
1 h after i.v. injection
  123I radioactivity, Frontal cortex: 0.722 ± 0.061 %ID × kg/g
  123I radioactivity, Hippocampus: 0.866 ± 0.089 %ID × kg/g
  123I radioactivity, Hypothalamus: 0.747 ± 0.111 %ID × kg/g
  123I radioactivity, Kidney: 1.770 ± 0.302 %ID × kg/g
  123I radioactivity, Midbrain: 0.754 ± 0.040 %ID × kg/g
  123I radioactivity, Olfactory b.: 0.631 ± 0.036 %ID × kg/g
  123I radioactivity, Pituitary: 1.561 ± 0.538 %ID × kg/g
  123I radioactivity, Pons/medulla: 0.761 ± 0.040 %ID × kg/g
  123I radioactivity, Spleen: 0.749 ± 0.093 %ID × kg/g
  123I radioactivity, Striatum: 0.779 ± 0.037 %ID × kg/g
  123I radioactivity, Thalamus: 0.779 ± 0.049 %ID × kg/g
2 h after i.v. injection
  123I radioactivity, Frontal cortex: 0.223 ± 0.028 %ID × kg/g
  123I radioactivity, Hippocampus: 0.255 ± 0.040 %ID × kg/g
  123I radioactivity, Hypothalamus: 0.218 ± 0.036 %ID × kg/g
  123I radioactivity, Kidney: 1.081 ± 0.154 %ID × kg/g
  123I radioactivity, Midbrain: 0.229 ± 0.046 %ID × kg/g
  123I radioactivity, Olfactory b.: 0.218 ± 0.025 %ID × kg/g
  123I radioactivity, Pituitary: 0.918 ± 0.632 %ID × kg/g
  123I radioactivity, Pons/medulla: 0.237 ± 0.045 %ID × kg/g
  123I radioactivity, Spleen: 0.266 ± 0.047 %ID × kg/g
  123I radioactivity, Striatum: 0.226 ± 0.034 %ID × kg/g
  123I radioactivity, Thalamus: 0.234 ± 0.037 %ID × kg/g
15 min after i.v. injection, only 1 sample
  123I radioactivity, Pituitary: 1.401^* %ID × kg/g

Reference: PMC4291083, “Ex Vivo Characterization of a Novel Iodine-123-Labelled Aminomethylchroman as a Potential Agonist Ligand for SPECT Imaging of Dopamine D2/3 Receptors” (International Journal of Molecular Imaging, 2014)
